Our source for the IC50 values is patent publication US12473304B2, “Heterocyclic PAD4 inhibitors” (BRISTOL-MYERS SQUIBB COMPANY, priority 2020, dated 2025).

Molecules are shown by their SMILES.

One may read the IC50 as the concentration that gives 50% inhibition.

The target in the assay is human PAD4 (hPAD4) (Homo sapiens (Human), UniProt Q9UM07). Nature of the assay: RFMS Human PAD4 Functional Assay 1. Conditions: RFMS assay 1; 5 nM hPAD4, 250 μM BAEE substrate, 50 μM calcium, 37° C. The format is biochemical. The gist of the method: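 Citrullination product read by RapidFire triple-quad MRM against a modified-citrulline internal standard, after TCA stop and 30 min phenyl glyoxal step at 37 °C. Reaction: 250 μM BAEE, 5 nM human PAD4, 90 min at 37 °C, pH 7.5 HEPES buffer with 50 μM calcium and 5 μM TPEN, following 30 min compound–enzyme preincubation (max 50 μM).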
Chain of human PAD4 (hPAD4) (Q9UM07 whole entry): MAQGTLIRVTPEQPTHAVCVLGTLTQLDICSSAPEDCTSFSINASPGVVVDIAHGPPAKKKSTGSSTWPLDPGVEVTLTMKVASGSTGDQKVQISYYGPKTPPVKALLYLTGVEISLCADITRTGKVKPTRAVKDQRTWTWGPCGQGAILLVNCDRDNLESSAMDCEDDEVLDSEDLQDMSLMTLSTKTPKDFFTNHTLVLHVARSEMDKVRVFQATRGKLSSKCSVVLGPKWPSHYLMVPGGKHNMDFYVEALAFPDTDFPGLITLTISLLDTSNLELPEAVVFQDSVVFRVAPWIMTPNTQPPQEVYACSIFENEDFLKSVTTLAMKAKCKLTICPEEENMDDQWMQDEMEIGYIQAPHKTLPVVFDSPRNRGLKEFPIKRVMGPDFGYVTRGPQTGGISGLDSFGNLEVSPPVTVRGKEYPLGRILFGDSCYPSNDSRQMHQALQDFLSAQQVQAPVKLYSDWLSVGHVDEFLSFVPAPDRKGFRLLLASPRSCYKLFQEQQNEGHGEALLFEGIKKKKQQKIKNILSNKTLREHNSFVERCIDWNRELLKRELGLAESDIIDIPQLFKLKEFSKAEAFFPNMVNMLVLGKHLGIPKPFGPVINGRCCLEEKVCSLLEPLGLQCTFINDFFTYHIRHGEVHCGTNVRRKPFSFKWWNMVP

As for `Cc1c(-c2cc3cccc(C4CN(C(=O)[C@H]5CC[C@H](O)CC5)C4)c3n2CC2CC2)nn2cc(C(=O)N3CCC[C@@H](N)C3)ccc12` [Example 530, ((R)-3-Aminopiperidin-1-yl)(2-(1-(cyclopropylmethyl)-7-(1-((1r,4r)-4-hydroxycyclohexane-1-carbonyl)azetidin-3-yl)-1H-indol-2-yl)-3-methylpyrazolo[1,5-a]pyridin-6-yl)methanone], the IC50 was 0.03 µM. With `Cc1c(-c2cc3ccc(N4CC(N(C)S(C)(=O)=O)C4)cc3n2CC2CC2)nn2cc(C(=O)N3CCC[C@@H](N)C3)ccc12` [Example 366, N-[1-(2-{6-[(3R)-3-Aminopiperidine-1-carbonyl]-3-methylpyrazolo[1,5-a]pyridin-2-yl}-1-(cyclopropylmethyl)-1H-indol-6-yl)azetidin-3-yl]-N-methylmethanesulfonamide], the IC50 worked out at 0.87 µM.

`COc1cc(C(=O)N2CC3CCC2[C@@H]3N)cn2nc(-c3cc4ccc(-c5ccn6c(C)nnc6c5)nc4n3CC3CC3)c(C)c12` (stereo partly drawn) [Example 8, ((7R)-7-Amino-2-azabicyclo[2.2.1]heptan-2-yl)(2-(1-(cyclopropylmethyl)-6-(3-methyl-[1,2,4]triazolo[4,3-a]pyridin-7-yl)-1H-pyrrolo[2,3-b]pyridin-2-yl)-4-methoxy-3-methylpyrazolo[1,5-a]pyridin-6-yl)methanone]: the IC50 came to 0.037 µM. For `CCOCC(=O)N1CCC(c2cccc3cc(-c4nn5cc(C(=O)N6CCC[C@@H](N)C6)ccc5c4C)n(CC4CC4)c23)CC1` [Example 441, (R)-1-(4-(2-(6-(3-aminopiperidine-1-carbonyl)-3-methylpyrazolo[1,5-a]pyridin-2-yl)-1-(cyclopropylmethyl)-1H-indol-7-yl)piperidin-1-yl)-2-ethoxyethan-1-one] the value was 0.06 µM; for `Cc1c(-c2cc3ccc(-c4ccc(Cl)c5c(NS(C)(=O)=O)nn(C)c45)cc3n2CC2CC2)nn2cc(C(=O)N3CC4CCC3[C@@H]4N)ccc12` (stereo partly drawn) [Example 337, N-[7-(2-{6-[(7R)-7-Amino-2-azabicyclo[2.2.1]heptane-2-carbonyl]-3-methylpyrazolo[1,5-a]pyridin-2-yl}-1-(cyclopropylmethyl)-1H-indol-6-yl)-4-chloro-1-methyl-1H-indazol-3-yl]methanesulfonamide], 0.02 µM.

Regarding `COc1cc(C(=O)N2CCC[C@@H](N)C2)cn2nc(-c3cc4ccnc(OCC5CNC(=O)C5)c4n3CC3CC3)c(C)c12` (single isomer, unassigned; isomer 2) [Example 603], the half-maximal inhibitory concentration (IC50) came to 0.1 µM.

With `Cc1c(-c2cc3ccc(N4CCC(N)CC4)cc3n2CC2CC2)oc2cc(C(=O)N3CC4CCC3[C@@H]4N)ccc12` (stereo partly drawn) [Example 191, ((7R)-7-Amino-2-azabicyclo[2.2.1]heptan-2-yl)(2-(6-(4-aminopiperidin-1-yl)-1-(cyclopropylmethyl)-1H-indol-2-yl)-3-methylbenzofuran-6-yl)methanone], the IC50 stood at 0.02 µM.

`Cc1c(-c2cc3ccc(-c4ccc(Cl)c5c(NS(C)(=O)=O)nn(C)c45)cc3n2CC2CC2)nn2cc(C(=O)N3CC4CCC3[C@@H]4N)cc(F)c12` (stereo partly drawn) [Example 58, N-(7-(2-(6-((7R)-7-Amino-2-azabicyclo[2.2.1]heptane-2-carbonyl)-4-fluoro-3-methylpyrazolo[1,5-a]pyridin-2-yl)-1-(cyclopropylmethyl)-1H-indol-6-yl)-4-chloro-1-methyl-1H-indazol-3-yl)methanesulfonamide]: the 50% inhibitory concentration (IC50) was found to be 0.083 µM.

Turning to `Cc1c(-c2cc3ccc(-c4ccc5c(c4)C(=O)NC5)cc3n2CC2CC2)oc2cc(C(=O)N3CC4CCC3[C@@H]4N)ccc12` (stereo partly drawn) [Example 177, 6-(2-(6-((7R)-7-Amino-2-azabicyclo[2.2.1]heptane-2-carbonyl)-3-methylbenzofuran-2-yl)-1-(cyclopropylmethyl)-1H-indol-6-yl)isoindolin-1-one], the IC50 amounted to 0.069 µM. For `Cc1c(-c2cc3ccc(-c4ccc(C(N)=O)c(F)c4)nc3n2CC2CC2)nn2cc(C(=O)N3CC4CCC3[C@@H]4N)cnc12` (stereo partly drawn) [Example 112, 4-(2-(6-((7R)-7-Amino-2-azabicyclo[2.2.1]heptane-2-carbonyl)-3-methylpyrazolo[1,5-a]pyrimidin-2-yl)-1-(cyclopropylmethyl)-1H-pyrrolo[2,3-b]pyridin-6-yl)-2-fluorobenzamide] the value was 0.572 µM; for `Cc1c(-c2cc3cccc(OCC4CNC(=O)C4)c3n2CC2CC2)nn2cc(C(=O)N3CCC[C@@H](N)C3)cc(F)c12` (single isomer, unassigned) [Example 571], 0.03 µM; for `COc1cc(C(=O)N2C[C@H](N)C[C@@H](F)C2)cn2nc(-c3cc4ccnc(OCC5CNC(=O)C5)c4n3CC3CC3)c(C)c12` (single isomer, unassigned; isomer 1) [Example 601], 0.03 µM. With `Cc1c(-c2cc3ccc(-c4cccc(O)c4F)nc3n2CC2CC2)nn2cc(C(=O)N3CC4CCC3[C@@H]4N)cc(F)c12` (stereo partly drawn) [Example 49, ((7R)-7-Amino-2-azabicyclo[2.2.1]heptan-2-yl)(2-(1-(cyclopropylmethyl)-6-(2-fluoro-3-hydroxyphenyl)-1H-pyrrolo[2,3-b]pyridin-2-yl)-4-fluoro-3-methylpyrazolo[1,5-a]pyridin-6-yl)methanone] the figure was 0.036 µM; with `COc1cc(C(=O)N2CC3CCC2[C@@H]3N)cn2nc(-c3cc4ccc(Cl)nc4n3CC3CC3)c(C)c12` (stereo partly drawn) [Example 2, ((7R)-7-Amino-2-azabicyclo[2.2.1]heptan-2-yl)(2-(6-chloro-1-(cyclopropylmethyl)-1H-pyrrolo[2,3-b]pyridin-2-yl)-4-methoxy-3-methylpyrazolo[1,5-a]pyridin-6-yl)methanone], 0.38 µM; with `Cc1c(-c2cc3ccc(-c4ccc(N5CCCC5=O)cc4)nc3n2CC2CC2)nn2cc(C(=O)N3CC4CCC3[C@@H]4N)ccc12` (stereo partly drawn) [Example 304, 1-[4-(2-{6-[(7R)-7-Amino-2-azabicyclo[2.2.1]heptane-2-carbonyl]-3-methylpyrazolo[1,5-a]pyridin-2-yl}-1-(cyclopropylmethyl)-1H-pyrrolo[2,3-b]pyridin-6-yl)phenyl]pyrrolidin-2-one], 0.01 µM. Consider `Cc1c(-c2cc3cccnc3n2CC2CC2)oc2cc(C(=O)N3C[C@H](N)C[C@@H](F)C3)ccc12` [Example 174, ((3R,5R)-3-Amino-5-fluoropiperidin-1-yl)(2-(1-(cyclopropylmethyl)-1H-pyrrolo[2,3-b]pyridin-2-yl)-3-methylbenzofuran-6-yl)methanone], for which the concentration for half-maximal inhibition (IC50) turned out to be 0.204 µM. With `COCC(=O)N1CCC(c2cccc3cc(-c4nn5cc(C(=O)N6C[C@H](N)C[C@@H](F)C6)ccc5c4C)n(CC4CC4)c23)CC1` [Example 478, 1-(4-(2-(6-((3R,5R)-3-Amino-5-fluoropiperidine-1-carbonyl)-3-methylpyrazolo[1,5-a]pyridin-2-yl)-1-(cyclopropylmethyl)-1H-indol-7-yl)piperidin-1-yl)-2-methoxyethan-1-one] the figure was 0.13 µM. In the case of `COc1cc(C(=O)N2CCC[C@@H](N)C2)cn2nc(-c3cc4cccc(C5CCN(C(=O)C6CCCO6)CC5)c4n3CC3CC3)c(C)c12` (mixture of isomers) [Example 400, ((R)-3-Aminopiperidin-1-yl)(2-(1-(cyclopropylmethyl)-7-(1-(tetrahydrofuran-2-carbonyl)piperidin-4-yl)-1H-indol-2-yl)-4-methoxy-3-methylpyrazolo[1,5-a]pyridin-6-yl)methanone], the IC50 was found to be 0.66 µM. For `COc1cc(C(=O)N2C[C@H](N)C[C@@H](F)C2)cn2nc(-c3cc4ccnc(OCCn5cnnc5)c4n3C)c(C)c12` [Example 620, (2-(7-(2-(4H-1,2,4-Triazol-4-yl)ethoxy)-1-methyl-1H-pyrrolo[2,3-c]pyridin-2-yl)-4-methoxy-3-methylpyrazolo[1,5-a]pyridin-6-yl)((3R,5R)-3-amino-5-fluoropiperidin-1-yl)methanone] the value was 0.45 µM; for `COc1cc(C(=O)N2CC3CCC2[C@@H]3N)cc2sc(-c3cc4ccc(N5CCC(OC)CC5)cc4n3CC3CC3)c(C)c12` (stereo partly drawn) [Example 131, ((7R)-7-Amino-2-azabicyclo[2.2.1]heptan-2-yl)(2-(1-(cyclopropylmethyl)-6-(4-methoxypiperidin-1-yl)-1H-indol-2-yl)-4-methoxy-3-methylbenzo[b]thiophen-6-yl)methanone], 0.146 µM; for `COc1nc(C(=O)N2CC3CCC2[C@@H]3N)cn2nc(-c3cc4ccccc4n3CC3CC3)c(C)c12` (stereo partly drawn) [Example 113, ((7R)-7-Amino-2-azabicyclo[2.2.1]heptan-2-yl)(2-(1-(cyclopropylmethyl)-1H-indol-2-yl)-4-methoxy-3-methylpyrazolo[1,5-a]pyrazin-6-yl)methanone], 0.283 µM. For `Cc1cc(-c2ccc3cc(-c4nn5cc(C(=O)N6CC7CCC6[C@@H]7N)ccc5c4C)n(CC4CC4)c3c2)ccc1C(N)=O` (stereo partly drawn) [Example 334, 4-(2-{6-[(7R)-7-Amino-2-azabicyclo[2.2.1]heptane-2-carbonyl]-3-methylpyrazolo[1,5-a]pyridin-2-yl}-1-(cyclopropylmethyl)-1H-indol-6-yl)-2-methylbenzamide] the value was 0.12 µM; for `COc1cc(C(=O)N2C[C@H](N)C[C@@H](F)C2)cn2nc(-c3cc4cccc(OCCn5cc(N)cn5)c4n3CC3CC3)c(C)c12` [Example 557, (2-(7-(2-(4-Amino-1H-pyrazol-1-yl)ethoxy)-1-(cyclopropylmethyl)-1H-indol-2-yl)-4-methoxy-3-methylpyrazolo[1,5-a]pyridin-6-yl)((3R,5R)-3-amino-5-fluoropiperidin-1-yl)methanone], 0.01 µM. With `Cc1c(-c2cc3ccc(Cl)nc3n2CC2CC2)nn2cc(C(=O)N3CCC[C@@H](N)C3)cc(Cl)c12` [Example 291, (3R)-1-{4-Chloro-2-[6-chloro-1-(cyclopropylmethyl)-1H-pyrrolo[2,3-b]pyridin-2-yl]-3-methylpyrazolo[1,5-a]pyridine-6-carbonyl}piperidin-3-amine] the figure was 5.89 µM.
